The results in this text go back to patent US5186941A (priority 1991, dated 1993).

The conditions of series [1]: rat, in vivo.
For series [2] the following is noted: rat, in vivo. This is another data set of the same source.

Regarding `C[n+]1ccccc1/C=N/O` [2-PAMCl, 2-pralidoxime chloride], in series [1], the “duration of therapeutic plasma drug level (4.0 μg/ml plasma)” value was 21/4 and the “time until blood concentration drops below therapeutic level (TL)” value was 2 to 3 h. The “death of all animals, time after injection” value in series [2] is no more than 30 min.
